According to article PMC8279484 (Journal of Medicinal Chemistry, 2021):

Columns and labels:
[1] = tested on: NF-κB; design: method as in PMID 30213823; conditions: LXA4 1 0.1 nM; 2 1 nM; cited from earlier work
[2] = tested on: THP-1 LUCIA monocytes; experiment: Extrinsic cytotoxicity: LDH release after LPS challenge; format: cell-based, human; conditions: for % LDH release relative to LPS: LPS 24 h
Description: We investigated the potential cytotoxicity of all candidate sLXms by assaying LDH release.[50] The response to LPS was arbitrarily set to 100%, and values were expressed relative to this. As previously reported by others, LPS provokes LDH release.[51] […] Ultimately, untreated cells defined the spontaneous cell release thresholds.
Lactate dehydrogenase (LDH) was assayed in cell supernatants to investigate possible cytotoxicity of the lead compound. LDH is rapidly released into the culture medium after disruption of the plasma membrane.[67],[69] After 24 h of exposure to sLXms, vehicle, or controls, followed by LPS stimulation, as described above, THP-1-Lucia NF-κB-cell supernatants were collected and LDH was assayed. Cytotoxicity was evaluated relative to vehicle controls. Maximum releasable LDH was determined in cells lysed with 2% Triton-X-100 (Sigma-Aldrich, Ireland). LDH levels were assessed by reading the absorbance at 490 nm (protein) and 690 nm (background noise), using a spectrophotometer (SPECTRAMAX M2, Molecular Devices (U.K.) Limited).

[3] = tested on: NF-κB; experiment: TNF-α-induced NF-κB reporter (pNF-κB-SEAP) assay in vSMCs; format: cell-based, mouse; conditions: (R)-6 1 nM, TNF-α 1 ng/mL 24 h; TNF-α alone 5-fold
Description: Mouse primary vascular SMCs were cultured at 37 °C in a humidified atmosphere of 95% air/5% CO2 and maintained in Dulbecco’s modified Eagle’s medium (DMEM; Life Technologies) supplemented with 25 mmol/L glucose with 10% (v/v) FBS. For treatments, media contained only 1% FBS.
NF-κB activity was determined by measuring secreted alkaline phosphatase in the culture supernatant using the SEAP Reporter Gene Assay System (Roche Australia). Cell experiments were performed six to eight times, and the values presented are the mean ± SEM from independent experiments.

[4] = tested on: C57BL/6J mice; experiment: Murine zymosan-induced peritonitis; format: in vivo, mouse; conditions: peritoneal lavage, n = 5 mice
Description: Male C57BL/6J mice of 9 weeks of age were purchased from Charles River (Kent, U.K.) and were housed in a specific pathogen-free facility in individually ventilated and filtered cages under positive pressure. Peritonitis was induced in mice by ip injection of zymosan (purchased from Sigma-Aldrich; 1 mg per mouse in 0.5 mL of phosphate-buffered saline (PBS)).[73] Mice were treated with dexamethasone (1 μg/g) purchased from Sigma-Aldrich 1 h prior to zymosan injection or (R)-6 (2 and 6 ng/g) (200 μL IP) 30 min prior to zymosan injection. Peritoneal cells were collected by lavage 4 h after injection of zymosan. The local Animal Use and Care Committee and The UK Home Office approved the animal experiments in accordance with the derivatives of both The Home Office Guidance on the Operation of Animals (Scientific Procedures) Act 1986 and The Guide for the Care and Use of Laboratory Animals of the National Research Council.
Surface marker expression on peritoneal cells was assessed by flow cytometry with data collection on a FACSCalibur (Becton Dickinson). Data were analyzed with FlowJo analysis software (Treestar Inc.). Cells were stained with AlexaFluor488 conjugated anti-F4/80 (clone BM8; eBioscience); APC conjugated anti-CD11b (clone M1/70; eBioscience) and Pacific blue conjugated anti-Ly6G (clone 1A8; BioLegend) antibodies. Prior to surface staining, peritoneal cells were counted manually (Neubauer chamber) with Turks solution. Using appropriate fluorescence minus one (FMO) controls, quadrants were drawn, and data were plotted on logarithmic-scale density- or dot-plots.

CCCCC[C@H](O)/C=C/C=C\C=C\C=C\[C@@H](O)[C@@H](O)CCCC(=O)O [Compound 1, LXA4]
effect on TNF-α-stimulated NF-κB activity [1]: reduced TNF-α-stimulated NF-κB activity

CCCCC[C@@H](O)c1nc2ccccc2nc1/C=C/[C@@H](O)[C@@H](O)CCCC(=O)OC [(R)-6, Methyl (5S,6R,E)-5,6-Dihydroxy-8-(3-((R)-1-hydroxyhexyl)quinoxalin-2-yl)oct-7-enoate]
attenuation of LPS-induced toxicity (LDH) ([2]; LPS 50 ng/mL, 24 h, 1 pM–1 μM): 1.3- to 2.4 fold
% LDH release relative to LPS ([2]; highest dose of (R)-6): 77 ± 10%
% LDH release relative to LPS ([2]; lowest dose of (R)-6): 42 ± 4%
NF-κB activity, fold change relative to vehicle [3]: 3 fold
Total no of PMNs ([4]; (R)-6 2 μg/kg ip (low dose) + zymosan 40 mg/kg): 4.4 ± 1.1 × 10^6/mL
Total no of PMNs ([4]; (R)-6 6 μg/kg ip (high dose) + zymosan 40 mg/kg): 3.2 ± 0.7 × 10^6/mL
